Assay results as given in patent US6924302B2, “Substituted triazole diamine derivatives as kinase inhibitors” (Ortho McNeil Pharmaceutical, Inc., priority 2000, dated 2005).
pIC50: −log10 of the molar value. Like-named read-outs stand apart in the source and are kept apart here.

What was measured:
[1] = biological target: T1, Glycogen Synthase Kinase-3 (beta isoform) (Oryctolagus cuniculus, UniProt G1T8E2); experiment: Kinase Selectivity Assay Glycogen Synthase Kinase-3; assay type: biochemical, rabbit; settings: Kinase Selectivity, Tables 2a-2k; read-out: GSK-3 IC50
T1 construct: purchased New England Biolabs 6040; host or cells: E. coli
T1 sequence (G1T8E2 1-432): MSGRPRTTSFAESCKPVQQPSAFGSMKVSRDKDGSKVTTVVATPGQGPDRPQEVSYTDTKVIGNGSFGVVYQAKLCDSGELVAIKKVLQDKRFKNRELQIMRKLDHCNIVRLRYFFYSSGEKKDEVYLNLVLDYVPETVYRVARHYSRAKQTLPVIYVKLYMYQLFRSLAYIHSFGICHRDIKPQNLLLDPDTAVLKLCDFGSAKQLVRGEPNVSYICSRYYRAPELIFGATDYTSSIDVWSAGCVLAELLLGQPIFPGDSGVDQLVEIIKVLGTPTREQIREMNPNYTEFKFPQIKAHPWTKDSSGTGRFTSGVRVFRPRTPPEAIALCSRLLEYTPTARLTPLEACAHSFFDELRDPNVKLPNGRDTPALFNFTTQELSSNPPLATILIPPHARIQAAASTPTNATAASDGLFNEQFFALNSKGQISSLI
How it was run: (§1)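 Radiometric Flashplate format: ^33P-γ-ATP transfer to immobilized biotinylated peptide, 1 h, 30° C, 1% DMSO final, enzyme in 50 mM Tris-HCl pH=8.0 + 0.1% BSA. Duplicate 8-point dilution, 100 uM down to 10 pM. IC50 from % inhibition of plate max signal versus log conc.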

[2] = biological target: T2, Casein Kinase 2 (alpha and beta subunits) (Homo sapiens, UniProt P68400); experiment: Kinase Selectivity Assay Casein Kinase 2; assay type: biochemical; settings: Kinase Selectivity, Tables 2a-2k; read-out: Caseine Kinase 2 IC50
T2 construct: purchased New England Biolabs 6010; host or cells: E. coli
T2 sequence (P68400 whole entry): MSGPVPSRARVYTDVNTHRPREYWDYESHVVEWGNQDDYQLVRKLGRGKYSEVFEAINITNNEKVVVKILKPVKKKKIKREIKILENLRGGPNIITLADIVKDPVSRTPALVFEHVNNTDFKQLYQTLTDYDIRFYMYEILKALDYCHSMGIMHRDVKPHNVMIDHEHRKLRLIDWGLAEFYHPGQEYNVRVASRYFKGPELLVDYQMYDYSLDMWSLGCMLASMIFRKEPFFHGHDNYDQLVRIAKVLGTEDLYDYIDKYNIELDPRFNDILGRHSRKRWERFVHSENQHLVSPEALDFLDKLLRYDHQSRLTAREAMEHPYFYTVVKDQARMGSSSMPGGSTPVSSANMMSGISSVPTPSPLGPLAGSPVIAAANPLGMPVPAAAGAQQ
T2 sequence (P67870 whole entry partner): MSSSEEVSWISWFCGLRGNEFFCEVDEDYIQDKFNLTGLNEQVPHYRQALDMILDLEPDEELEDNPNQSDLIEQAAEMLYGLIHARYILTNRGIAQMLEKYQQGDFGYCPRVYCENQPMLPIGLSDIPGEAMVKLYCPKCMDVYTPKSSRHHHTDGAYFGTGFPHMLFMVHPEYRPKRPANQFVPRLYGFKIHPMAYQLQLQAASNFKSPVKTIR
How it was run: as §1

[3] = biological target: T3, MAP Kinase (ERK-2 isoform) (Rattus norvegicus, UniProt P63086); experiment: Kinase Selectivity Assay MAP Kinase (ERK-2); assay type: biochemical; settings: Kinase Selectivity, Tables 2a-2k; read-out: ERK 2 IC50
T3 construct: polyhistidine (N); host or cells: E. coli
T3 sequence (P63086 whole entry, canonical isoform): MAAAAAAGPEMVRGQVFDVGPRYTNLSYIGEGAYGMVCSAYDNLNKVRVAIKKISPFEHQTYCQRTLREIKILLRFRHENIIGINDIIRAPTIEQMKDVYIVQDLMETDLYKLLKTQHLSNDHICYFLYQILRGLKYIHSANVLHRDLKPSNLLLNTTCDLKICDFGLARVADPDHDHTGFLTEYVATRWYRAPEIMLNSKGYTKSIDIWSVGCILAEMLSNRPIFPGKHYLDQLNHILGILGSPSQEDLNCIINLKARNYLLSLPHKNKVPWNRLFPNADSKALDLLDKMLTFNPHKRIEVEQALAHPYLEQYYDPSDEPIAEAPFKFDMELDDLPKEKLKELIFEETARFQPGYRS
How it was run: as §1

[4] = biological target: T4, Casein Kinase 1 (CK1 delta isoform) (Rattus norvegicus, UniProt Q06486); experiment: Kinase Selectivity Assay Casein Kinase 1; assay type: biochemical; settings: Tables 2a-2k, read-out: Caseine Kinase 1 IC50
T4 construct: a truncation at amino acid 318 of the C-terminal portion of the rat CK1 delta isoform; purchased New England Biolabs 6030; host or cells: E. coli
T4 sequence (Q06486 1-317): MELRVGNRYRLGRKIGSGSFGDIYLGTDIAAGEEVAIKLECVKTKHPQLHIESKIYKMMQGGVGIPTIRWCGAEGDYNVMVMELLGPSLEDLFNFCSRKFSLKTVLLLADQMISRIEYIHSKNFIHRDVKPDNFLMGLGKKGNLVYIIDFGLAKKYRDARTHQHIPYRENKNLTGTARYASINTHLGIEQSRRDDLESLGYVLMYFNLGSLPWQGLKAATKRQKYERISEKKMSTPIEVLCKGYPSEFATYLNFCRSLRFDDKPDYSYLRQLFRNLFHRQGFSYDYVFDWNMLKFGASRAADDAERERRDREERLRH
Procedure: (§2) Assays to test compound inhibition of other kinases were preformed using methods that measure the amount of phosphorylation of a biotinylated peptide substrate. Biotinylated peptide substrates were selected from the literature as appropriate for the enzyme being evaluated. […] Assay conditions vary slightly for each protein kinase, for example, insulin receptor kinase requires 10 mM MnCl2 for activity and Calmodulin-dependent protein kinase requires calmodulin and 10 mM CaCl2. These assay conditions are known in the art. The reaction mixture was dispensed into the wells of a streptavidin coated Flashplate and 1 μl drug stock in 100% DMSO was added to a 100 μl reaction volume resulting in a final concentration of 1% DMSO on the reaction. Enzyme was diluted in 50 mM Tris-HCl pH=8.0, 0.1% BSA and add to each well. The reaction was incubated for one hour at 30° C. in the presence of compound. After one hour the reaction mix was aspirated from the plate and the plate was washed with PBS containing 100 mM EDTA. The plate was read on a scintillation counter to determine ^33P-γ-ATP incorporated into the immobilized peptide. Test compounds were assayed in duplicate at 8 concentrations [100 uM, 10 uM, 1 uM, 100 nM, 10 nM, 1 nM, 100 pM, 10 pM]. A maximum and minimum signal for the assay was determined on each plate. The IC50 was calculated from the dose response curve of the percent inhibition of the maximum signal in the assay according to the formula [max signal—background/test compound signal—background (100)=% inhibition] by graphing the percent inhibition against the log concentration of test compound. Known inhibitor compounds appropriate for the kinase being assayed were also included on each plate.
CDK2 in complex with cyclin A is commercially available (Upstate Biotech, Lake Placid, N.Y.). The CDK4 complex was composed of a mouse CDK4 protein and a mouse Cyclin D1 protein (The mouse CDK4 protein was genetically fused to an N-terminal Flag-epitope tag and the mouse Cyclin D1 protein was fused with an N-terminal AU-1 epitope tag. The genes encoding these proteins were transferred to commercially available baculoviral vectors. The recombinant CDK4/D1 complex was then made by co-infecting commercially available insect cells with viruses carrying these two constructs). […] ERK-1 protein (Discontinued from Calbiochem). EGFR (epidermal growth factor receptor) is purified from human A431 cell membranes (Sigma, St. Louis, Mo., Cat.# E3641).

[5] = biological target: T5, Calmodulin Kinase (calmodulin-dependent protein kinase 2) (Rattus norvegicus, UniProt P11275); experiment: Kinase Selectivity Assay Calmodulin Kinase; assay type: biochemical; settings: Kinase Selectivity, Tables 2a-2k; read-out: Calmodulin Kinase 2 IC50
T5 construct: a truncated version of the alpha subunit of the rat protein; purchased New England Biolabs 6060; host or cells: insect cells
How it was run: as §1

[6] = test system: HeLa cervical adenocarcinoma; experiment: Inhibition of Cell Proliferation (14C-thymidine incorporation), HeLa; assay type: cell-based; settings: Homo sapiens, HeLa cell line
Procedure: (§3) The ability of a test compound to inhibit the proliferation of cell growth was determined by measuring incorporation of ^14C-labelled thymidine into newly synthesized DNA within the cells. This method was used on cell lines derived from carcinomas originating from several tissues such as HeLa cervical adenocarcinoma (American Type Culture Collection (ATCC), Virginia, Cat. #CCL-2), A375 malignant melanoma (ATCC CRL-1619), SK-OV-3 ovarian adenocarcinoma (ATCC HTB-77) HCT-116 colon carcinoma (CCL-247), PC-3 prostate adenocarcinoma (ATCC CRL-1435), and MDA-MB-231 (Xenogen Corp.) In this way the effect of a compound on cell growth of cells with many different phenotypes can be determined. Cells were trypsinized and counted and 3000-8000 cells were added to each well of a 96-well CytoStar tissue culture treated scintillating microplate (Amersham #RPNQ0160) in complete medium in a volume of 100 μl. Cells were incubated for 24 hours in complete medium at 37° C. in an atmosphere containing 5% CO2. Next, 1 μl of test compound in 100% DMSO was added to the wells of the plate. DMSO only was added to control wells. Cells were incubated for 24 more hours in complete medium at 37° C. in an atmosphere containing 5% CO2. Methyl ^14C-thymidine 56 mCi/mmol (NEN #NEC568 or Amersham #CFA532) was diluted in complete medium and 0.2 uCi/well was added to each well of the CytoStar plate in a volume of 20 μl. The plate was incubated for 24 hours at 37° C. plus 5% CO2 in drug plus ^14C-thymidine. The contents of the plate were discarded into a ^14C radioactive waste container by inverting the plate and the plate was washed twice with 200 μl PBS. 200 μl of PBS is added to each well. The top of the plate was sealed with a transparent plate sealer and a white plate backing sealer (Packard #6005199) was applied to the bottom of the plate. The degree of methyl ^14C-thymidine incorporation was quantified on a Packard Top Count.

[7] = biological target: Insulin Receptor Kinase (Homo sapiens, UniProt P06213); experiment: Kinase Selectivity Assay Insulin Receptor Kinase; assay type: biochemical; settings: Kinase Selectivity, Tables 2a-2k; read-out: Insulin R Kinase IC50
Sequence of Insulin Receptor Kinase (P06213 980-1352): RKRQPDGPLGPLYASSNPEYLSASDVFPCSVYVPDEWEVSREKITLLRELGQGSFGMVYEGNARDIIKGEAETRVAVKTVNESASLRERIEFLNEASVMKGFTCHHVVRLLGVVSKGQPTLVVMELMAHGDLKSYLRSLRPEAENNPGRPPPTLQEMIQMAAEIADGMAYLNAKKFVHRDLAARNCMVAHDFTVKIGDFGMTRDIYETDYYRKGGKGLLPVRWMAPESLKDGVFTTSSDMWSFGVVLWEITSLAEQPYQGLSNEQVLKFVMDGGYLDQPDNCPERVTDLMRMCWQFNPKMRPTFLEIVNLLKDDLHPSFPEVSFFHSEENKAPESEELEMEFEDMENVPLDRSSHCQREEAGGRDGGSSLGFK
How it was run: as §1

[8] = biological target: T6, PDGF-R (platelet derived growth factor receptor) beta subunit kinase domain (Homo sapiens, UniProt P09619); experiment: Kinase Selectivity Assay PDGF-R; assay type: biochemical; settings: Kinase Selectivity, Tables 2a-2k; read-out: PDGF-R kinase IC50
T6 construct: nucleotides 1874-3507 of the human PDGF-R beta subunit kinase domain; polyhistidine (N)
T6 sequence (P09619 564-1106): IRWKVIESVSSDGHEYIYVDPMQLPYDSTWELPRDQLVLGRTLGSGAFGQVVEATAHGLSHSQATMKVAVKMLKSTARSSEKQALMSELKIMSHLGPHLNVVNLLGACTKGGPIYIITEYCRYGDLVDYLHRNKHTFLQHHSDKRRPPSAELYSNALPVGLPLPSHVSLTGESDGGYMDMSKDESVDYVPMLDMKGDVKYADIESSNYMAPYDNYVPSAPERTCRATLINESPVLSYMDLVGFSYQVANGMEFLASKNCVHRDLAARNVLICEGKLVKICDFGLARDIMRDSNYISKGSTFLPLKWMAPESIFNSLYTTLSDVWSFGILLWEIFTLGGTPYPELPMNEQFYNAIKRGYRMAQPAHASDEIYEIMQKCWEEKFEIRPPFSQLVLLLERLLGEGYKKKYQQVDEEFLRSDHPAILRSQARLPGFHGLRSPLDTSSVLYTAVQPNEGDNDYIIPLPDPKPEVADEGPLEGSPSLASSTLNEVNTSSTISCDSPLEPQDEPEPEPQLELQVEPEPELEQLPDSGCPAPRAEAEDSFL
How it was run: as §1

[9] = biological target: PKC (protein kinase-C), gamma or beta isoform; experiment: Kinase Selectivity Assay PKC; assay type: biochemical, human; settings: Tables 2a-2k
Procedure: as §2
CDK2 in complex with cyclin A is commercially available (Upstate Biotech, Lake Placid, N.Y.). […]

[10] = test system: PC-3 prostate adenocarcinoma; experiment: Inhibition of Cell Proliferation (14C-thymidine incorporation), PC-3; assay type: cell-based; settings: Homo sapiens, PC-3 cell line
Procedure: as §3

[11] = biological target: T7, VEGF-R (vascular endothelial growth factor receptor-2) (Rattus norvegicus, UniProt O08775); experiment: VEGF-R Screening Assay; assay type: biochemical; settings: read-out: VEGF-R IC50
T7 construct: polyhistidine (6xHIS) (N)
T7 sequence (O08775 786-1343): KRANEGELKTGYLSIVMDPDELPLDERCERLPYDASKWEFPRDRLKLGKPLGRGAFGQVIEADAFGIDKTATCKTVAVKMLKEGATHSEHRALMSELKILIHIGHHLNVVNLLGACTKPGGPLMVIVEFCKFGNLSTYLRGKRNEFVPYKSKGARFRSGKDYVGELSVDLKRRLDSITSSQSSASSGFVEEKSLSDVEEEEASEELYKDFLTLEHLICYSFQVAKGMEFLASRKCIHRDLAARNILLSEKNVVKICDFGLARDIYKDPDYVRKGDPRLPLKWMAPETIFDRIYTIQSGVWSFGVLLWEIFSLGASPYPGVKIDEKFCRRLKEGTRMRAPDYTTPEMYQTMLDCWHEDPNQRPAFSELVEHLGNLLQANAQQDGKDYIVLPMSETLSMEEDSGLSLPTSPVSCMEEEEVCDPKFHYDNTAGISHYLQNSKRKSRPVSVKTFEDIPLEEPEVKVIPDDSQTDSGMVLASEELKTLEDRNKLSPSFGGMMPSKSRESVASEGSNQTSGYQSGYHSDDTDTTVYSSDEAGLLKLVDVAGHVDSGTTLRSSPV

Molecule `Cc1ccsc1C(=O)n1nc(Nc2ccc(-n3cncn3)cc2)nc1N` [Cpd 99, 1-[(3-methyl-2-thienyl)carbonyl]-N^3-[4-(1H-1,2,4-triazol-1-yl)phenyl]-1H-1,2,4-triazole-3,5-diamine] has a pIC50 [1] of 7.52, a pIC50 [2] of under 4.00 and a pIC50 [3] of under 4.00. It also gave a pIC50 [4] of under 6.00, a pIC50 [5] of under 4.00 and an IC50 [6] of 3350 nM. For the same molecule, the pIC50 [7] was under 4.00, the pIC50 [8] was 6.41 and the pIC50 [9] was under 4.00. The IC50 [10] was 1690 nM, the pIC50 ([11]; Kinase Selectivity, Tables 2a-2k) was 7.01 and the pIC50 ([11]; Table 1) was 7.01.
